Experimental data as given in the NIST ThermoML archive (doi:10.1016/j.jct.2018.05.027).

Test: xn = mol fraction of the nth substance listed
Details: Liquid, Vibrating wire viscometry

CCC(C)O (stereo unspecified) [butan-2-ol] + CC(C)CC(C)(C)C
viscosity [mPa·s]
Details | 293.15 K | 298.15 K | 313.15 K | 333.15 K | 353.15 K
100 kPa, x1 = 0.2999 | 0.6047 | – | 0.4647 | 0.3574 | 0.2785
100 kPa, x1 = 0.5001 | 0.7922 | – | 0.5643 | 0.4132 | 0.3272
100 kPa, x1 = 0.7996 | 1.673 | – | 0.9784 | 0.6203 | 0.4165
100 kPa, x1 = 1 | 3.767 | 3.102 | 1.839 | 1.007 | 0.6198
1000 kPa, x1 = 0.2999 | 0.609 | – | 0.4677 | 0.3614 | 0.2825
1000 kPa, x1 = 0.5001 | 0.797 | – | 0.5722 | 0.4166 | 0.333
1000 kPa, x1 = 0.7996 | 1.707 | – | 0.9858 | 0.631 | 0.4213
1000 kPa, x1 = 1 | 3.813 | 3.123 | 1.862 | 1.023 | 0.6273
5000 kPa, x1 = 0.2999 | 0.6391 | – | 0.4936 | 0.3814 | 0.2981
5000 kPa, x1 = 0.5001 | 0.8463 | – | 0.6074 | 0.4455 | 0.349
5000 kPa, x1 = 0.7996 | 1.793 | – | 1.043 | 0.6669 | 0.4405
5000 kPa, x1 = 1 | 3.978 | 3.28 | 1.947 | 1.078 | 0.6577
10000 kPa, x1 = 0.2999 | 0.6863 | – | 0.5264 | 0.4083 | 0.3222
10000 kPa, x1 = 0.5001 | 0.8968 | – | 0.6501 | 0.4682 | 0.373
10000 kPa, x1 = 0.7996 | 1.913 | – | 1.11 | 0.7064 | 0.4671
10000 kPa, x1 = 1 | 4.235 | 3.462 | 2.041 | 1.133 | 0.6999
20000 kPa, x1 = 0.2999 | 0.7692 | – | 0.5924 | 0.4584 | 0.3642
20000 kPa, x1 = 0.5001 | 1 | – | 0.7349 | 0.5293 | 0.4151
20000 kPa, x1 = 0.7996 | 2.14 | – | 1.253 | 0.7854 | 0.5216
20000 kPa, x1 = 1 | 4.696 | 3.873 | 2.262 | 1.254 | 0.7717
30000 kPa, x1 = 0.2999 | 0.8642 | – | 0.6612 | 0.5124 | 0.4069
30000 kPa, x1 = 0.5001 | 1.131 | – | 0.8188 | 0.6041 | 0.4619
30000 kPa, x1 = 0.7996 | 2.395 | – | 1.4 | 0.8701 | 0.5729
30000 kPa, x1 = 1 | 5.159 | 4.253 | 2.503 | 1.372 | 0.8354
40000 kPa, x1 = 0.2999 | 0.9608 | – | 0.7328 | 0.5669 | 0.4472
40000 kPa, x1 = 0.5001 | 1.247 | – | 0.9032 | 0.6689 | 0.5088
40000 kPa, x1 = 0.7996 | 2.683 | – | 1.559 | 0.9706 | 0.6309
40000 kPa, x1 = 1 | 5.693 | 4.697 | 2.734 | 1.491 | 0.9088
50000 kPa, x1 = 0.2999 | 1.065 | – | 0.8134 | 0.6217 | 0.4904
50000 kPa, x1 = 0.5001 | 1.385 | – | 0.987 | 0.7304 | 0.5576
50000 kPa, x1 = 0.7996 | 2.993 | – | 1.707 | 1.07 | 0.6907
50000 kPa, x1 = 1 | 6.274 | 5.142 | 2.99 | 1.624 | 0.9898
60000 kPa, x1 = 0.2999 | 1.173 | – | 0.8859 | 0.6795 | 0.54
60000 kPa, x1 = 0.5001 | 1.541 | – | 1.082 | 0.7967 | 0.6147
60000 kPa, x1 = 0.7996 | 3.276 | – | 1.869 | 1.172 | 0.7546
60000 kPa, x1 = 1 | 6.831 | 5.553 | 3.237 | 1.759 | 1.07
70000 kPa, x1 = 0.2999 | 1.282 | – | 0.9597 | 0.7435 | 0.5886
70000 kPa, x1 = 0.5001 | 1.7 | – | 1.179 | 0.8604 | 0.6678
70000 kPa, x1 = 0.7996 | 3.645 | – | 2.049 | 1.271 | 0.8214
70000 kPa, x1 = 1 | 7.377 | 6.044 | 3.558 | 1.905 | 1.151
80000 kPa, x1 = 0.2999 | 1.395 | – | 1.04 | 0.8018 | 0.6326
80000 kPa, x1 = 0.5001 | 1.853 | – | 1.272 | 0.9339 | 0.7221
80000 kPa, x1 = 0.7996 | 3.939 | – | 2.23 | 1.387 | 0.8973
80000 kPa, x1 = 1 | 8.056 | 6.544 | 3.841 | 2.081 | 1.242
100000 kPa, x1 = 0.2999 | 1.66 | – | 1.223 | 0.9315 | 0.7318
100000 kPa, x1 = 0.5001 | 2.169 | – | 1.509 | 1.089 | 0.8402
100000 kPa, x1 = 0.7996 | 4.702 | – | 2.621 | 1.613 | 1.046
100000 kPa, x1 = 1 | 9.598 | 7.646 | 4.456 | 2.427 | 1.444
120000 kPa, x1 = 0.2999 | 1.925 | – | 1.414 | 1.057 | 0.8276
120000 kPa, x1 = 0.5001 | 2.516 | – | 1.74 | 1.236 | 0.9461
120000 kPa, x1 = 0.7996 | 5.445 | – | 3.051 | 1.831 | 1.206
120000 kPa, x1 = 1 | 11.31 | 9.053 | 5.179 | 2.716 | 1.644
140000 kPa, x1 = 0.2999 | 2.24 | – | 1.598 | 1.196 | 0.9377
140000 kPa, x1 = 0.5001 | 2.913 | – | 1.973 | 1.408 | 1.069
140000 kPa, x1 = 0.7996 | 6.323 | – | 3.552 | 2.083 | 1.367
140000 kPa, x1 = 1 | 13.38 | 10.43 | 5.933 | 3.099 | 1.845

Cc1ccc(C)c(C)c1 [1,2,4-trimethylbenzene] + CCC(C)O
viscosity [mPa·s]
Details | 293.15 K | 313.15 K | 333.15 K | 353.15 K
100 kPa, x2 = 0.3011 | 0.9506 | 0.708 | 0.539 | 0.43
100 kPa, x2 = 0.5001 | 1.108 | 0.7802 | 0.5777 | 0.4439
100 kPa, x2 = 0.7999 | 1.834 | 1.097 | 0.7185 | 0.4963
1000 kPa, x2 = 0.3011 | 0.9531 | 0.7098 | 0.5411 | 0.436
1000 kPa, x2 = 0.5001 | 1.117 | 0.7964 | 0.5881 | 0.4481
1000 kPa, x2 = 0.7999 | 1.863 | 1.131 | 0.7301 | 0.5
5000 kPa, x2 = 0.3011 | 0.9988 | 0.7427 | 0.571 | 0.4507
5000 kPa, x2 = 0.5001 | 1.173 | 0.8335 | 0.6122 | 0.467
5000 kPa, x2 = 0.7999 | 1.964 | 1.187 | 0.7583 | 0.5157
10000 kPa, x2 = 0.3011 | 1.051 | 0.7727 | 0.5928 | 0.4678
10000 kPa, x2 = 0.5001 | 1.235 | 0.8676 | 0.6383 | 0.4891
10000 kPa, x2 = 0.7999 | 2.099 | 1.244 | 0.7963 | 0.5386
20000 kPa, x2 = 0.3011 | 1.137 | 0.8356 | 0.634 | 0.4988
20000 kPa, x2 = 0.5001 | 1.329 | 0.9318 | 0.6899 | 0.5215
20000 kPa, x2 = 0.7999 | 2.326 | 1.363 | 0.8656 | 0.584
30000 kPa, x2 = 0.3011 | 1.238 | 0.9034 | 0.6817 | 0.5358
30000 kPa, x2 = 0.5001 | 1.462 | 1.031 | 0.739 | 0.5615
30000 kPa, x2 = 0.7999 | 2.611 | 1.515 | 0.9569 | 0.6316
40000 kPa, x2 = 0.3011 | 1.334 | 0.9814 | 0.7313 | 0.57
40000 kPa, x2 = 0.5001 | 1.591 | 1.108 | 0.7961 | 0.5952
40000 kPa, x2 = 0.7999 | 2.897 | 1.666 | 1.039 | 0.6809
50000 kPa, x2 = 0.3011 | 1.452 | 1.055 | 0.784 | 0.605
50000 kPa, x2 = 0.5001 | 1.739 | 1.204 | 0.8558 | 0.6372
50000 kPa, x2 = 0.7999 | 3.229 | 1.835 | 1.13 | 0.7349
60000 kPa, x2 = 0.3011 | 1.57 | 1.132 | 0.8388 | 0.645
60000 kPa, x2 = 0.5001 | 1.906 | 1.3 | 0.9176 | 0.6813
60000 kPa, x2 = 0.7999 | 3.561 | 2.005 | 1.219 | 0.7906
70000 kPa, x2 = 0.3011 | 1.702 | 1.224 | 0.8962 | 0.6863
70000 kPa, x2 = 0.5001 | 2.061 | 1.394 | 0.9822 | 0.726
70000 kPa, x2 = 0.7999 | 3.917 | 2.187 | 1.321 | 0.849
80000 kPa, x2 = 0.3011 | 1.851 | 1.303 | 0.9559 | 0.7294
80000 kPa, x2 = 0.5001 | 2.257 | 1.502 | 1.046 | 0.7743
80000 kPa, x2 = 0.7999 | 4.274 | 2.368 | 1.424 | 0.9092
100000 kPa, x2 = 0.3011 | 2.152 | 1.491 | 1.089 | 0.821
100000 kPa, x2 = 0.5001 | 2.62 | 1.716 | 1.196 | 0.871
100000 kPa, x2 = 0.7999 | 5.09 | 2.741 | 1.653 | 1.04
120000 kPa, x2 = 0.3011 | 2.47 | 1.667 | 1.238 | 0.9204
120000 kPa, x2 = 0.5001 | 3.033 | 1.936 | 1.366 | 0.9782
120000 kPa, x2 = 0.7999 | 6.117 | 3.219 | 1.898 | 1.175
140000 kPa, x2 = 0.3011 | 2.838 | 1.904 | 1.385 | 1.038
140000 kPa, x2 = 0.5001 | 3.493 | 2.192 | 1.528 | 1.093
140000 kPa, x2 = 0.7999 | 7.143 | 3.693 | 2.144 | 1.339
